# From ChEMBL document CHEMBL1159231, “Cyathocaline, an Azafluorenone Alkaloid from Cyathocalyx zeylanica” (J Nat Prod, 1995)
# Activity calls are given as the source filed them. No cut-off for these calls is given here.
# What was measured:
# [1] = test system: Saccharomyces cerevisiae; assay: DNA damaging activity against DNA repair rad 52Y gene-deficient yeast RS 322YK mutant assessed as drug level required to produce 12 mm zone of inhibition; format: functional
# [2] = test system: Saccharomyces cerevisiae; assay: DNA damaging activity against DNA repair-deficient yeast RS 321N mutant assessed as drug level required to produce 12 mm zone of inhibition; format: functional
# [3] = test system: Saccharomyces cerevisiae; assay: DNA damaging activity against wild type DNA repair-proficient yeast RS 188N (RAD+) assessed as drug level required to produce 12 mm zone of inhibition; format: functional
# [4] = test system: A549; assay: Cytotoxicity against human A549 cells; format: functional, cell-based
# [5] = test system: Saccharomyces cerevisiae; assay: DNA damaging activity against DNA repair rad6 gene-deficient yeast RS 167N mutant; format: functional, organism-based
smiles,measurement,setting,value
COc1c(O)cc2c(c1O)-c1nccc(C)c1C2=O [CYATHOCALINE],IC12,[1],90 µg/mL
same,IC12,[2],87 µg/mL
same,IC12,[3],> 400 µg/mL
same,IC50,[4],8.5 µM
same,Activity,[5],inactive
